In PubChem BioAssay AID652072 (Broad Institute, 2013):
Records with an inconclusive call do not appear.

Tested on: LOX IMVI melanoma, caspase 3/7 luminescence, apoptosis
Assay: apoptosis induction over several timepoints, melanoma line – cell-based, LOX IMVI, luminescence, multiple timepoints, dry powder, mechanism study for HRAS target identification, dose response (AID 652072)
Details: measured here: caspase 3/7, timepoint 3

For `CCC(=O)N(c1ccc(OC)c(Cl)c1)C(C(=O)NCCc1ccccc1)c1cccs1` (stereo unspecified), the AC40 was > 35 µM.
